Assay results taken from patent publication US9434687B2, “Detection of synthetic cannabinoids” (priority 2011, dated 2016).

Key:
Format in all cases: binding, sheep
[1] = tested on: antibodies raised to Immunogens I & II; test: Competitive ELISA, selected molecules as potential cross-reactants (Table 3); settings: for % CR / IC50: Table 3, standard conc 750.00 ng/ml
Experimental: (a) The wells of an enhanced binding 96 well polystyrene microtiter plate were coated with the Ig fraction of the antiserum raised to Immunogen I (Hapten A-BTG—example 5) and diluted in 10 mM Tris, pH8.5 (125 μl/well). The appropriate antibody coating concentration was determined using standard ELISA checkerboard techniques. The plate was incubated for 2 hours at 37° C., washed 4 times over a 10-minute period with Tris buffered saline containing Tween 20 (TBST) and tapped dry. Standard solutions of JWH synthetic cannabinoids, metabolites and selected molecules were prepared in TBST and 50 μl of each was added to the appropriate wells. 75 μl of conjugate (Hapten A-HRP) diluted in Tris buffer containing EDTA, D-mannitol, sucrose, thimerosal and BSA, was added to each of the wells. The appropriate dilution of conjugate was also determined using standard ELISA checkerboard techniques. The plate was incubated at 25° C. for 1 hour. The excess unbound conjugate was removed by washing 6 times over a 10-minute period with TBST and tapped dry. 125 μl of tetramethylbenzedine (TMB) substrate solution was added to each well of the plate that was then incubated for 15-20 minutes in the dark at room temperature. The reaction was terminated by addition of 125 μl of 0.2M sulphuric acid to each well. The absorbance was then measured at 450 nm using a microtiter plate reader.
Employing each series of standards, calibration curves were generated and these were used to determine the specificity of the immunoassay for the JWH synthetic cannabinoids, metabolites and selected molecules. The results of this study are presented in Tables 1 to 3, cross-reactivity being calculated according to the following formula: % CR=IC50,JWH-018/IC50,CR×100
Where % CR is the percentage cross-reactivity, IC50, JWH-018 is the concentration of JWH-018 that causes 50% displacement of signal and IC50, CR is the concentration of JWH synthetic cannabinoid/metabolite/selected molecule that causes 50% displacement of signal.
The antibody produced from Immunogen I is able to bind to JWH molecules known to be incorporated in herbal therapeutics such as JWH-018, proposed metabolites such as M2 (Wintermeyer et al 2010), and potential metabolites such as M5. The detection and quantification of other JWH SSCs is also provided for, the antibodies of the invention bind a range of molecules comprising the 3-(1-naphthoyl)-1H-indole structure (e.g. JWH-071, JWH-398, M1 etc.). […] The concept of using the antibodies of the invention to detect and determine future stealth synthetic cannabinoids is highlighted in Table 4; the 5-fluoropentyl derivative known to bind the CB 1 receptor, but which as of yet has not been detected in herbal therapeutics or similar substances, binds to antibodies raised from Immunogens I and II.

[2] = tested on: IgG fraction of antiserum raised to Immunogen I; settings: Antibody to Immunogen I; cross-reactants at 100 ng/ml; 1000 ng/ml; standard JWH-018
In short: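 Plates were coated with the IgG fraction of sheep antiserum raised to Immunogen I and incubated with standards (JWH-018, 0-40 ng/ml) plus hapten-HRP conjugate for 1 h at 25° C. Detection used TMB, read at 450 nm. IC50 was taken from a 4-parameter fit as the concentration giving half the zero-standard OD.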

[3] = tested on: IgG fraction of antiserum raised to Immunogen IV; settings: Antibody to Immunogen IV; cross-reactants at 100 ng/ml; 1000 ng/ml; standard JWH-018
[4] = tested on: IgG fraction of antiserum raised to Immunogen VIII; settings: Antibody to Immunogen VIII; cross-reactants at 100 ng/ml; 1000 ng/ml; standard JWH-018
[5] = tested on: IgG fraction of antiserum raised to Immunogen VII; settings: Antibody to Immunogen VII; cross-reactants at 100 ng/ml; 1000 ng/ml; standard JWH-015

Row | SMILES | % CR [1] | IC50 [1] | % B/B0 [2] | % B/B0 [3] | % B/B0 [4] | % B/B0 [5] | binding / cross-reaction with antibodies raised from Immunogens I and II (in words) [1]
1 | OCCc1c[nH]c2ccc(O)cc12 [5-hydroxytryptophol] | <0.28% | >0.75 µg/mL | 93.30% | 94.51% | 102.93% | 98.45% | –
2 | CCCCCCC(C)(C)c1ccc([C@H]2CCC[C@@H](O)C2)c(O)c1 [CP-49,497-C7] | <0.28% | >0.75 µg/mL | 101.20% | 96.84% | 86.95% | 94.23% | –
3 | CCCCCc1cc(O)c2c(c1)OC(C)(C)c1ccc(C)cc1-2 [Cannabinol] | <0.28% | >0.75 µg/mL | 86.60% | 94.74% | 94.03% | 95.43% | –
4 | CCCCCc1cc(O)c2c(c1)OC(C)(C)[C@@H]1CCC(C)=C[C@@H]21 [Delta 9 THC] | <0.28% | >0.75 µg/mL | 102.66% | 93.62% | 96.10% | 96.76% | –
5 | O=C(O)c1c[nH]c2ccccc12 [Indole-3-carboxylic Acid] | <0.28% | >0.75 µg/mL | 101.26% | 93.42% | 96.28% | 96.90% | do not cross-react
